Laboratory results: patent publication US10035790B2, “RORγ modulators” (BRISTOL-MYERS SQUIBB COMPANY, priority 2012, dated 2018)
pIC50: −log10 of the molar value.

target: T1, ligand binding domain of human RORγ (A262-S507) (Homo sapiens, UniProt P51449); test: General RORγ SPA binding assay (competition with [3H]25-hydroxycholesterol); settings: IC50, RORγ SPA binding assay, inhibition of [3H]25-hydroxycholesterol binding
T1 construct: made in house; host or cells: E. coli
T1 sequence (P51449 262-507): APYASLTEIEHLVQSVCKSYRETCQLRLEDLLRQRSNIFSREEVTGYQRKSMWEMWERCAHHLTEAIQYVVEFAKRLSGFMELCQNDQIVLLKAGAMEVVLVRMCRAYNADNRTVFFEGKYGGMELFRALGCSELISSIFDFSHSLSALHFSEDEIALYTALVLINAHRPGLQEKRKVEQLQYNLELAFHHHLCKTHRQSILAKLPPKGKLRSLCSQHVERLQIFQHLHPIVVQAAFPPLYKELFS
Procedure, shortened: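 N-terminally His-tagged protein was expressed in E. coli and nickel-purified. Then 50 nM protein was preincubated with compound for 15 min at room temperature in PBS with 0.5% fatty acid free BSA, followed by radioligand for 15 min and copper His-tag SPA beads for 30 min. IC50 came from percent inhibition of binding.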

Work on `Nc1ncc(C(=O)COc2cccc(C(F)(F)F)n2)c(C2CCN(C(=O)Oc3ccccc3F)CC2)n1` [Compound M14, 2-Fluorophenyl 4-[2-amino-5-({[6-(trifluoromethyl)pyridin-2-yl]oxy}acetyl)pyrimidin-4-yl]piperidine-1-carboxylate] yielded a pIC50 of 6.31.

same assay, conditions: RORγ SPA binding assay, inhibition of [3H]25-hydroxycholesterol binding; read-out: IC50

In order of falling pIC50:
1. Nc1ncc(C(O)COc2cccc(C(F)(F)F)n2)c(C2CCN(C(=O)Nc3c(F)cccc3F)CC2)n1 (centres unmarked) [Compound N3, 4-[2-Amino-5-(1-hydroxy-2-{[6-(trifluoromethyl)pyridin-2-yl]oxy}ethyl)pyrimidin-4-yl]-N-(2,6-difluorophenyl)piperidine-1-carboxamide]  8.64
2. Cc1nc(N)nc(C2CCN(C(=O)Nc3c(F)cccc3F)CC2)c1C(=O)COc1cccc(C(F)(F)F)n1 [Compound M11, 4-[2-Amino-6-methyl-5-({[6-(trifluoromethyl)pyridin-2-yl]oxy}acetyl)pyrimidin-4-yl]-N-(2,6-difluorophenyl)piperidine-1-carboxamide]  8.55
3. Cc1nc(C)c(C(O)COc2cccc(C(F)(F)F)n2)c(C2CCN(C(=O)Nc3c(F)cccc3F)CC2)n1 (centres unmarked) [Compound N6, N-(2,6-Difluorophenyl)-4-[5-(1-hydroxy-2-{[6-(trifluoromethyl)pyridin-2-yl]oxy}ethyl)-2,6-dimethylpyrimidin-4-yl]piperidine-1-carboxamide]  8.40
4. Cc1ncc(C(F)(F)COc2cccc(C(F)(F)F)n2)c(C2CCN(C(=O)Nc3c(F)cccc3F)CC2)n1 [Compound N14, N-(2,6-Difluorophenyl)-4-[5-(1,1-difluoro-2-{[6-(trifluoromethyl)pyridin-2-yl]oxy}ethyl)-2-methylpyrimidin-4-yl]piperidine-1-carboxamide]  8.39
5. Cc1nc(N)nc(C2CCN(C(=O)Nc3c(F)cccc3F)CC2)c1C(O)COc1cccc(C(F)(F)F)n1 (centres unmarked) [Compound N9, 4-[2-Amino-5-(1-hydroxy-2-{[6-(trifluoromethyl)pyridin-2-yl]oxy}ethyl)-6-methylpyrimidin-4-yl]-N-(2,6-difluorophenyl)piperidine-1-carboxamide]  8.38
6. COc1nc(C)c(C(O)COc2ccnc(C(F)(F)F)n2)c(C2CCN(C(=O)Nc3c(F)cccc3F)CC2)n1 (centres unmarked) [Compound N8, N-(2,6-Difluorophenyl)-4-[5-(1-hydroxy-2-{[2-(trifluoromethyl)pyrimidin-4-yl]oxy}ethyl)-6-methyl-2-(methyloxy)pyrimidin-4-yl]piperidine-1-carboxamide]  8.32
7. CC(=O)Nc1nc(C)c(C(=O)COc2cccc(C(F)(F)F)n2)c(C2CCN(C(=O)Nc3c(F)cccc3F)CC2)n1 [Compound M12, 4-[2-(Acetylamino)-6-methyl-5-({[6-(trifluoromethyl)pyridin-2-yl]oxy}acetyl)pyrimidin-4-yl]-N-(2,6-difluorophenyl)piperidine-1-carboxamide]  8.21
8. Nc1ncc(C(F)(F)COc2ccnc(C(F)(F)F)n2)c(C2CCN(C(=O)Nc3c(F)cccc3F)CC2)n1 [Compound N17, 4-[2-Amino-5-(1,1-difluoro-2-{[2-(trifluoromethyl)pyrimidin-4-yl]oxy}ethyl)pyrimidin-4-yl]-N-(2,6-difluorophenyl)piperidine-1-carboxamide]  8.21
9. Cc1ncc(C(F)(F)CNc2ccnc(C(F)(F)F)n2)c(C2CCN(C(=O)Cc3c(F)cccc3F)CC2)n1 [Compound N19, N-[2-(4-{1-[(2,6-Difluorophenyl)acetyl]piperidin-4-yl}-2-methylpyrimidin-5-yl)-2,2-difluoroethyl]-2-(trifluoromethyl)pyrimidin-4-amine]  8.19
10. Cc1ncc(C(O)COc2cccc(C(F)(F)F)n2)c(C2CCN(C(=O)Nc3c(F)cccc3F)CC2)n1 (centres unmarked) [Compound N1, N-(2,6-Difluorophenyl)-4-[5-(1-hydroxy-2-{[6-(trifluoromethyl)pyridin-2-yl]oxy}ethyl)-2-methylpyrimidin-4-yl]piperidine-1-carboxamide]  8.18
11. Nc1ncc(C(O)COc2ccnc(C(F)(F)F)n2)c(C2CCN(C(=O)Oc3c(F)cccc3F)CC2)n1 (centres unmarked) [Compound N13, 2,6-Difluorophenyl 4-[2-amino-5-(1-hydroxy-2-{[2-(trifluoromethyl)pyrimidin-4-yl]oxy}ethyl)pyrimidin-4-yl]piperidine-1-carboxylate]  8.17
12. Cc1ncc(C(F)COc2cccc(C(F)(F)F)n2)c(C2CCN(C(=O)Nc3c(F)cccc3F)CC2)n1 (centres unmarked) [Compound N22, N-(2,6-Difluorophenyl)-4-[5-(1-fluoro-2-{[6-(trifluoromethyl)pyridin-2-yl]oxy}ethyl)-2-methylpyrimidin-4-yl]piperidine-1-carboxamide]  8.15
13. Cc1nc(C)c(C(O)COc2ccnc(C(F)(F)F)n2)c(C2CCN(C(=O)Nc3c(F)cccc3F)CC2)n1 (centres unmarked) [Compound N5, N-(2,6-Difluorophenyl)-4-[5-(1-hydroxy-2-{[2-(trifluoromethyl)pyrimidin-4-yl]oxy}ethyl)-2,6-dimethylpyrimidin-4-yl]piperidine-1-carboxamide]  8.08
14. Cc1ncc(C(F)(F)COc2cccc(C(F)(F)F)n2)c(C2CCN(C(=O)Nc3c(F)cccc3C(F)(F)F)CC2)n1 [Compound N15, 4-[5-(1,1-Difluoro-2-{[6-(trifluoromethyl)pyridin-2-yl]oxy}ethyl)-2-methylpyrimidin-4-yl]-N-[2-fluoro-6-(trifluoromethyl)phenyl]piperidine-1-carboxamide]  7.96
15. COc1ncc(C(O)COc2cccc(C(F)(F)F)n2)c(C2CCN(C(=O)Nc3c(F)cccc3F)CC2)n1 (centres unmarked) [Compound N4, N-(2,6-Difluorophenyl)-4-[5-(1-hydroxy-2-{[6-(trifluoromethyl)pyridin-2-yl]oxy}ethyl)-2-(methyloxy)pyrimidin-4-yl]piperidine-1-carboxamide]  7.92
16. Cc1ncc(C(N)COc2cccc(C(F)(F)F)n2)c(C2CCN(C(=O)Nc3c(F)cccc3F)CC2)n1 (centres unmarked) [Compound N23, 4-[5-(1-Amino-2-{[6-(trifluoromethyl)pyridin-2-yl]oxy}ethyl)-2-methylpyrimidin-4-yl]-N-(2,6-difluorophenyl)piperidine-1-carboxamide]  7.91
17. Cc1ncc(C(F)(F)CNc2nccc(C(F)(F)F)n2)c(C2CCN(C(=O)Cc3c(F)cccc3F)CC2)n1 [Compound N21, N-[2-(4-{1-[(2,6-Difluorophenyl)acetyl]piperidin-4-yl}-2-methylpyrimidin-5-yl)-2,2-difluoroethyl]-4-(trifluoromethyl)pyrimidin-2-amine]  7.85
18. Cc1ncc(C(F)(F)CNc2ccnc(C(F)(F)F)n2)c(C2CCN(C(=O)Nc3c(F)cccc3F)CC2)n1 [Compound N18, N-(2,6-Difluorophenyl)-4-[5-(1,1-difluoro-2-{[2-(trifluoromethyl)pyrimidin-4-yl]amino}ethyl)-2-methylpyrimidin-4-yl]piperidine-1-carboxamide]  7.79
19. Cc1nc(N)nc(C2CCN(C(=O)Nc3c(F)cccc3F)CC2)c1C(O)COc1ccnc(C(F)(F)F)n1 (centres unmarked) [Compound N7, 4-[2-amino-5-(1-hydroxy-2-{[2-(trifluoromethyl)pyrimidin-4-yl]oxy}ethyl)-6-methylpyrimidin-4-yl]-N-(2,6-difluorophenyl)piperidine-1-carboxamide]  7.77
20. Nc1ncc(C(O)COc2ccnc(C(F)(F)F)n2)c(C2CCN(C(=O)Nc3c(F)cccc3F)CC2)n1 (centres unmarked) [Compound N2, 4-[2-Amino-5-(1-hydroxy-2-{[2-(trifluoromethyl)pyrimidin-4-yl]oxy}ethyl)pyrimidin-4-yl]-N-(2,6-difluorophenyl)piperidine-1-carboxamide]  7.71
21. CC(=O)Nc1nc(C)c(C(O)COc2cccc(C(F)(F)F)n2)c(C2CCN(C(=O)Nc3c(F)cccc3F)CC2)n1 (centres unmarked) [Compound N10, 4-[2-(Acetylamino)-5-(1-hydroxy-2-{1-[6-(trifluoromethyl)pyridin-2-yl]oxy}ethyl)-6-methylpyrimidin-4-yl]-N-(2,6-difluorophenyl)piperidine-1-carboxamide]  7.68
22. Cc1ncc(C(F)(F)CNc2nccc(C(F)(F)F)n2)c(C2CCN(C(=O)Nc3c(F)cccc3F)CC2)n1 [Compound N20, N-(2,6-Difluorophenyl)-4-[5-(1,1-difluoro-2-{[4-(trifluoromethyl)pyrimidin-2-yl]amino}ethyl)-2-methylpyrimidin-4-yl]piperidine-1-carboxamide]  7.67
23. CC(=O)Nc1nc(C)c(C(COc2cccc(C(F)(F)F)n2)OC(C)=O)c(C2CCN(C(=O)Nc3c(F)cccc3F)CC2)n1 (centres unmarked) [Compound N11, 1-[2-(Acetylamino)-4-(1-{[(2,6-difluorophenyl)amino]carbonyl}piperidin-4-yl)-6-methylpyrimidin-5-yl]-2-{[6-(trifluoromethyl)pyridin-2-yl]oxy}ethyl acetate]  7.43
24. Nc1ncc(C(O)CNc2ccnc(C(F)(F)F)n2)c(C2CCN(C(=O)Nc3c(F)cccc3F)CC2)n1 (centres unmarked) [Compound N12, 4-[2-amino-5-(1-hydroxy-2-{[2-(trifluoromethyl)pyrimidin-4-yl]amino}ethyl)pyrimidin-4-yl]-N-(2,6-difluorophenyl)piperidine-1-carboxamide]  7.16
25. Nc1ncc(C(=O)COc2ccnc(C(F)(F)F)n2)c(C2CCN(C(=O)c3c(F)cccc3F)CC2)n1 [Compound M13, 1-(2-Amino-4-{1-[(2,6-difluorophenyl)carbonyl]piperidin-4-yl}pyrimidin-5-yl)-2-{[2-(trifluoromethyl)pyrimidin-4-yl]oxy}ethanone]  6.46
